# Test results: US8008490B2, “Polymorphic forms of aripiprazole and method” (Sandoz AG, priority 2005, dated 2011)
# Key:
# [1] = Moisture sorption isotherm (hygroscopicity); assay type: physicochemical; settings: FIG. 10
# [2] = Solution mediated transformation of aripiprazole forms (thermodynamic stability); assay type: physicochemical; settings: at temperatures at and below about 60° C.
smiles,measurement,setting,value
"O=C1CCc2ccc(OCCCCN3CCN(c4cccc(Cl)c4Cl)CC3)cc2N1 [Form X of aripiprazole, 7-[4-[4-(2,3-dichlorophenyl)-1-piperazinyl]butoxy]-3,4-dihydro-2(1H)-quinolinone]",conversion into a hydrated form of aripiprazole,[1],does not substantially convert into a hydrated form of aripiprazole
same,hygroscopicity,[1],low hygroscopicity
same,thermodynamic stability (Gibbs free energy relative to other forms of aripiprazole),[2],lowest Gibbs free energy
